Assay results reported in the supplement of paper PMC6965134.
± gives the standard deviation of the averaged measurements.

Assay: TIMS collisional cross section (CCS, N2) of the lipid ion; higher = larger ion cross section
Settings: ionization mode: negative, one isomer drawn
Protocol: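 Lipid extracts of human plasma (NIST SRM 1950), mouse liver or HeLa cells were separated by nanoflow C18 LC (30 min gradient) and analysed by TIMS-PASEF on a timsTOF Pro. Ion mobility was calibrated with the Agilent tuning mix (negative mode ions) and converted to collisional cross sections (Mason–Schamp, N2).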
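Also: lipids from MTBE extraction, five replicate injections per sample, 100 ms TIMS ramp spanning 0.6–1.95 Vs/cm², lipid identity assigned from PASEF MS/MS spectra.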

CC/C=C\C/C=C\C/C=C\C/C=C\C/C=C\CCCC(=O)OC[C@@H](O)COP(=O)([O-])OCC[N+](C)(C)C [LPC 20:5_0:0]
TIMS collisional cross section (sample type: Human plasma, ion (formula + adduct): [C28H48NO7P+HCOO] 1-): 242.5 Å² | TIMS collisional cross section (sample type: Human plasma, ion (formula + adduct): [C28H48NO7P-CH3] 1-): 224.7 Å² | TIMS collisional cross section (sample type: Mouse Liver, ion (formula + adduct): [C28H48NO7P+HCOO] 1-): 241.9 Å²

CCCCCCCCCCCCCCCCCCCCCC(=O)OC[C@@H](O)COP(=O)([O-])OCC[N+](C)(C)C [LPC 22:0_0:0]
TIMS collisional cross section (sample type: Human plasma, ion (formula + adduct): [C30H62NO7P+HCOO] 1-): 258.6 Å² | TIMS collisional cross section (sample type: Mouse Liver, ion (formula + adduct): [C30H62NO7P+HCOO] 1-): 258.6 Å²

CCCCC/C=C\C/C=C\CCCCCCCCCCCC(=O)OC[C@@H](O)COP(=O)([O-])OCC[N+](C)(C)C [LPC 22:2_0:0]
TIMS collisional cross section (sample type: Human plasma, ion (formula + adduct): [C30H58NO7P+HCOO] 1-): 254.2 Å²

CCCCC/C=C\C/C=C\C/C=C\C/C=C\CCCCCC(=O)OC[C@@H](O)COP(=O)([O-])OCC[N+](C)(C)C [LPC 22:4_0:0]
TIMS collisional cross section (sample type: Human plasma, ion (formula + adduct): [C30H54NO7P+HCOO] 1-): 249 ± 0.42 Å² | TIMS collisional cross section (sample type: Human plasma, ion (formula + adduct): [C30H54NO7P-CH3] 1-): 231.5 Å² | TIMS collisional cross section (sample type: Mouse Liver, ion (formula + adduct): [C30H54NO7P+HCOO] 1-): 248.7 Å²

CC/C=C\C/C=C\C/C=C\C/C=C\C/C=C\C/C=C\CCC(=O)OC[C@@H](O)COP(=O)([O-])OCC[N+](C)(C)C [LPC 22:6_0:0]
TIMS collisional cross section (sample type: Human plasma, ion (formula + adduct): [C30H50NO7P+HCOO] 1-): 246.7 ± 0.42 Å² | TIMS collisional cross section (sample type: Human plasma, ion (formula + adduct): [C30H50NO7P-CH3] 1-): 230.4 Å² | TIMS collisional cross section (sample type: Mouse Liver, ion (formula + adduct): [C30H50NO7P+HCOO] 1-): 247 Å²

CCCCCCCCCCCCCCCCOCC(O)COP(=O)([O-])OCC[N+](C)(C)C (stereo unspecified) [LPC O- 16:0]
TIMS collisional cross section (sample type: Human plasma, ion (formula + adduct): [C24H52NO6P+HCOO] 1-): 236.6 Å²

CCCCCCCCCCCCCCCCCCOCC(O)COP(=O)([O-])OCC[N+](C)(C)C (stereo unspecified) [LPC O- 18:0]
TIMS collisional cross section (sample type: Human plasma, ion (formula + adduct): [C26H56NO6P+HCOO] 1-): 243.4 Å²

CCCCCC/C=C\CCCCCCCCCCOC[C@@H](O)COP(=O)([O-])OCC[N+](C)(C)C [LPC O- 18:1_0:0]
TIMS collisional cross section (sample type: Human plasma, ion (formula + adduct): [C26H54NO6P+HCOO] 1-): 244 Å²

CCCCCCCCCCCCCCCC(=O)OC[C@@H](O)COP(=O)(O)OCCN [LPE 16:0_0:0]
TIMS collisional cross section (sample type: Human plasma, ion (formula + adduct): [C21H44NO7P-CH3] 1-): 207.4 Å² | TIMS collisional cross section (sample type: Human plasma, ion (formula + adduct): [C21H44NO7P-H] 1-): 214 ± 5.5 Å² | TIMS collisional cross section (sample type: Mouse Liver, ion (formula + adduct): [C21H44NO7P-H] 1-): 219.47 ± 10 Å²

CCCCCC/C=C\CCCCCCCC(=O)OC[C@@H](O)COP(=O)(O)OCCN [LPE 16:1_0:0]
TIMS collisional cross section (sample type: Human plasma, ion (formula + adduct): [C21H42NO7P-H] 1-): 208.4 Å² | TIMS collisional cross section (sample type: Mouse Liver, ion (formula + adduct): [C21H42NO7P-H] 1-): 208.4 Å²

CCCCCCCCCCCCCCCCCC(=O)OC[C@@H](O)COP(=O)(O)OCCN [LPE 18:0_0:0]
TIMS collisional cross section (sample type: Human plasma, ion (formula + adduct): [C23H48NO7P-CH3] 1-): 214.1 Å² | TIMS collisional cross section (sample type: Human plasma, ion (formula + adduct): [C23H48NO7P-H] 1-): 218.1 Å² | TIMS collisional cross section (sample type: Mouse Liver, ion (formula + adduct): [C23H48NO7P-H] 1-): 217.5 ± 0.6 Å²

CCCCCCCC/C=C\CCCCCCCC(=O)OC[C@@H](O)COP(=O)(O)OCCN [LPE 18:1_0:0]
TIMS collisional cross section (sample type: Human plasma, ion (formula + adduct): [C23H46NO7P-H] 1-): 215.5 ± 1 Å² | TIMS collisional cross section (sample type: Mouse Liver, ion (formula + adduct): [C23H46NO7P-H] 1-): 215.2 ± 1 Å²

CCCCC/C=C\C/C=C\CCCCCCCC(=O)OC[C@@H](O)COP(=O)(O)OCCN [LPE 18:2_0:0]
TIMS collisional cross section (sample type: Human plasma, ion (formula + adduct): [C23H44NO7P-H] 1-): 212.88 ± 0.79 Å² | TIMS collisional cross section (sample type: Mouse Liver, ion (formula + adduct): [C23H44NO7P-H] 1-): 212.2 Å²

CCCCC/C=C\C/C=C\C/C=C\CCCCC(=O)OC[C@@H](O)COP(=O)(O)OCCN [LPE 18:3_0:0]
TIMS collisional cross section (sample type: Human plasma, ion (formula + adduct): [C23H42NO7P-H] 1-): 211.6 Å²

CCCCCCCCCCCCCCCCCCCC(=O)OC[C@@H](O)COP(=O)(O)OCCN [LPE 20:0_0:0]
TIMS collisional cross section (sample type: Human plasma, ion (formula + adduct): [C25H52NO7P-H] 1-): 224.9 Å² | TIMS collisional cross section (sample type: Mouse Liver, ion (formula + adduct): [C25H52NO7P-CH3] 1-): 220.9 Å²

CCCCCCCC/C=C\CCCCCCCCCC(=O)OC[C@@H](O)COP(=O)(O)OCCN [LPE 20:1_0:0]
TIMS collisional cross section (sample type: Mouse Liver, ion (formula + adduct): [C25H50NO7P-H] 1-): 222.6 Å²

CCCCC/C=C\C/C=C\C/C=C\CCCCCCC(=O)OC[C@@H](O)COP(=O)(O)OCCN [LPE 20:3_0:0]
TIMS collisional cross section (sample type: Mouse Liver, ion (formula + adduct): [C25H46NO7P-H] 1-): 217.6 ± 0.42 Å²

CCCCC/C=C\C/C=C\C/C=C\C/C=C\CCCC(=O)OC[C@@H](O)COP(=O)(O)OCCN [LPE 20:4_0:0]
TIMS collisional cross section (sample type: Mouse Liver, ion (formula + adduct): [C25H44NO7P-H] 1-): 217.3 Å²

CC/C=C\C/C=C\C/C=C\C/C=C\C/C=C\CCCC(=O)OC[C@@H](O)COP(=O)(O)OCCN [LPE 20:5_0:0]
TIMS collisional cross section (sample type: Human plasma, ion (formula + adduct): [C25H42NO7P-H] 1-): 216.7 Å² | TIMS collisional cross section (sample type: Mouse Liver, ion (formula + adduct): [C25H42NO7P-H] 1-): 216.7 Å²

CCCCC/C=C\C/C=C\C/C=C\C/C=C\CCCCCC(=O)OC[C@@H](O)COP(=O)(O)OCCN [LPE 22:4_0:0]
TIMS collisional cross section (sample type: Human plasma, ion (formula + adduct): [C27H48NO7P-H] 1-): 223.5 Å² | TIMS collisional cross section (sample type: Mouse Liver, ion (formula + adduct): [C27H48NO7P-H] 1-): 222.9 Å²

CCCCC/C=C\C/C=C\C/C=C\C/C=C\C/C=C\CCC(=O)OC[C@@H](O)COP(=O)(O)OCCN [LPE 22:5_0:0]
TIMS collisional cross section (sample type: Human plasma, ion (formula + adduct): [C27H46NO7P-H] 1-): 222.18 ± 0.25 Å² | TIMS collisional cross section (sample type: Mouse Liver, ion (formula + adduct): [C27H46NO7P-H] 1-): 222.05 ± 0.35 Å²

CC/C=C\C/C=C\C/C=C\C/C=C\C/C=C\C/C=C\CCC(=O)OC[C@@H](O)COP(=O)(O)OCCN [LPE 22:6_0:0]
TIMS collisional cross section (sample type: Human plasma, ion (formula + adduct): [C27H44NO7P-H] 1-): 222.4 Å²

CCCCCCCC/C=C\CCCCCCCCOC[C@@H](O)COP(=O)(O)OCCN [LPE O- 18:1_0:0]
TIMS collisional cross section (sample type: Human plasma, ion (formula + adduct): [C23H48NO6P-H] 1-): 218.6 ± 2.1 Å²

CCCCCCCCCCCCCCCCCC/C=C\OC[C@@H](O)COP(=O)(O)OCCN [LPE O- 20:0_0:0]
TIMS collisional cross section (sample type: Human plasma, ion (formula + adduct): [C25H52NO6P-H] 1-): 223.9 Å² | TIMS collisional cross section (sample type: Mouse Liver, ion (formula + adduct): [C25H52NO6P-H] 1-): 222.7 Å²

CCCCCCCCCCCCCCCC(=O)OC[C@@H](O)COP(=O)(O)OC[C@@H](O)CO [LPG 16:0_0:0]
TIMS collisional cross section (sample type: Human plasma, ion (formula + adduct): [C22H45O9P-H] 1-): 216.9 Å²

CCCCCCCCCCCCCCCCCC(=O)OC[C@@H](O)COP(=O)(O)OC[C@@H](O)CO [LPG 18:0_0:0]
TIMS collisional cross section (sample type: Human plasma, ion (formula + adduct): [C24H49O9P-H] 1-): 224.9 Å²

CCCCCCCC/C=C\CCCCCCCC(=O)OC[C@@H](O)COP(=O)(O)OC[C@@H](O)CO [LPG 18:1_0:0]
TIMS collisional cross section (sample type: Mouse Liver, ion (formula + adduct): [C24H47O9P-H] 1-): 221.1 Å²

CCCCCCCCCCCCCCCC(=O)OC[C@@H](O)COP(=O)(O)OC1C(O)C(O)C(O)[C@@H](O)C1O (stereo partly specified) [LPI 16:0]
TIMS collisional cross section (sample type: Mouse Liver, ion (formula + adduct): [C25H49O12P-H] 1-): 232.6 Å²

CCCCCC/C=C\CCCCCCCC(=O)OC[C@@H](O)COP(=O)(O)OC1[C@H](O)[C@H](O)C(O)[C@H](O)[C@H]1O (stereo partly specified) [LPI 16:1_0:0]
TIMS collisional cross section (sample type: Human plasma, ion (formula + adduct): [C25H47O12P-H] 1-): 230.2 Å²

CCCCCCCCCCCCCCCCCC(=O)OC[C@@H](O)COP(=O)(O)OC1C(O)C(O)C(O)[C@@H](O)C1O (stereo partly specified) [LPI 18:0_0:0]
TIMS collisional cross section (sample type: Human plasma, ion (formula + adduct): [C27H53O12P-H] 1-): 239.4 Å²

CCCCCCCC/C=C\CCCCCCCC(=O)OC[C@@H](O)COP(=O)(O)OC1[C@H](O)[C@H](O)C(O)[C@H](O)[C@H]1O (stereo partly specified) [LPI 18:1_0:0]
TIMS collisional cross section (sample type: Human plasma, ion (formula + adduct): [C27H51O12P-H] 1-): 238.3 Å²

CC/C=C\C/C=C\C/C=C\C/C=C\CCCCC(=O)OC[C@@H](O)COP(=O)(O)OC1[C@H](O)[C@H](O)C(O)[C@H](O)[C@H]1O (stereo partly specified) [LPI 18:4_0:0]
TIMS collisional cross section (sample type: Mouse Liver, ion (formula + adduct): [C27H45O12P+AcO] 1-): 244.9 Å²
